This is an account of results in US20240165052A1 (priority 2021, published 2024).

SMILES strings stand for the structures.

For data set [1] the following is noted: at 20° C.; cited from earlier work.
Data set [2] can be described thus: pH of phosphate buffer (donor medium) with (S)-ketamine HCl or OTF. Format: physicochemical.
For data set [3], the system named is porcine mucosa (mucosa oesophagus). Description: in vitro permeation of (S)-ketamine, Franz diffusion cell. Conditions: 37° C.

As to `NC(CO)(CO)CO` [TRIS, tris(hydroxymethyl)aminomethane], in data set [1], the pKs is listed as 8.2.

As to `CN[C@]1(c2ccccc2Cl)CCCCC1=O.Cl` [(S)-ketamine HCl], the “Buffer + (S)-ketamine HCl pH at 22° C.” value in data set [2] (acidic buffer (pH 4.99 at 22° C.)) is on record as 4.92; in data set [2] (alkaline buffer (pH 8.33 at 22° C.)) it was 7.81; in data set [2] (neutral buffer (pH 7.46 at 22° C.)), 6.64.

In the case of `CNC1(c2ccccc2Cl)CCCCC1=O` (racemic) [(S)-ketamine, (S)-(±)-2-(2-chlorophenyl)-2-(methylamino)cyclohexan-1-one], the “permeation rate of S-ketamine” value in data set [3] (2.77 mg (S)-ketamine HCl on mucosa, acidic buffer as donor, FIG. 1) was “lowest permeation rate”; in data set [3] (0.287 cm^2 OTF formulation 1 + 70 μL acidic buffer, FIG. 2), “lowest permeation rate”. Also, the “permeation of S-ketamine” value in data set [3] (2.77 mg (S)-ketamine HCl on mucosa, neutral buffer as donor, FIG. 1) was “best”; in data set [3] (0.287 cm^2 OTF formulation 1 + 70 μL alkaline buffer, FIG. 2), “best”.
